The first assay addresses T1, USP28 (His-tagged USP28-FL-mammalian) (Homo sapiens, UniProt Q96RU2).
T1 construct: Expression of USP28 (1-1077)-TEV-6*His (pTT5 vector) was carried out in Expi293f cells; made in house; host or cells: Expi293F cells (pTT5 vector)
T1 sequence (Q96RU2 1-1077): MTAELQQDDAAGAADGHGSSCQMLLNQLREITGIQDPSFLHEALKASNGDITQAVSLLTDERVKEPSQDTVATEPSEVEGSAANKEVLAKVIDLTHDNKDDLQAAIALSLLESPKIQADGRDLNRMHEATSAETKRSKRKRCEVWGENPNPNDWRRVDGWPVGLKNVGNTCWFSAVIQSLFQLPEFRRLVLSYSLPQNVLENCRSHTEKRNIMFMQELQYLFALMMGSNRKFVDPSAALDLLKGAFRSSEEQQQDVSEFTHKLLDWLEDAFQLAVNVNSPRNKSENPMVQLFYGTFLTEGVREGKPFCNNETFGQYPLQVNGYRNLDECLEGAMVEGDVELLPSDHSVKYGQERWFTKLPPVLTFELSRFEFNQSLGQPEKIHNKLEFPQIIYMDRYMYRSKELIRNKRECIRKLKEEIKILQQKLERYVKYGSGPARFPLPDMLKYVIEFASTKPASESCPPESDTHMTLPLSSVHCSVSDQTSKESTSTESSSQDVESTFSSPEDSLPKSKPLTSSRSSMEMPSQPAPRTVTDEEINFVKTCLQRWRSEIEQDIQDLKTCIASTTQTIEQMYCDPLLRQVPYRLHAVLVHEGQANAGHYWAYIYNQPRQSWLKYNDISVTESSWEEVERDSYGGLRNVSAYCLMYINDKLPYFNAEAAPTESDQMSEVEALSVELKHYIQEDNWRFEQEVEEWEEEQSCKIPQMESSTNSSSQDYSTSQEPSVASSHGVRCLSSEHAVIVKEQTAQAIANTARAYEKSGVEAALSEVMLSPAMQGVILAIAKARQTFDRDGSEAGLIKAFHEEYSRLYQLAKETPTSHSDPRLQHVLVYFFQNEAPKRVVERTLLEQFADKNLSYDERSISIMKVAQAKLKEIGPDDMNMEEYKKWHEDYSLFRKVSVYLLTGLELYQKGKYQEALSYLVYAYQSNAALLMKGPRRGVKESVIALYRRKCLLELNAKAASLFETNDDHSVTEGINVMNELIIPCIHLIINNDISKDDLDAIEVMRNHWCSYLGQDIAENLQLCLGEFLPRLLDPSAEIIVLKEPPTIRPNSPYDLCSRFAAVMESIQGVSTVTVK
Briefly: Ubiquitin-Rhodamine 110 Assay for USP28 Activity, Example A-1(a). It is filed as biochemical. The following applies: Ubiquitin-Rhodamine 110 assay, read-out: USP28 A-1(a) IC50 range. Here is the method:
Example A-1(a): Biochemical Assay: Ubiquitin-Rhodamine 110 Assay for USP28 Activity
The assay was performed in a final volume of 9 μL in assay buffer containing 20 mM Tris-HCl (pH 8.0, (1M Tris-HCl, pH 8.0 solution; Corning 46-031-CM)), 3 mM BME (2-Mercaptoethanol; Sigma 63689-25ML-F), 0.03% BGG (0.22 μM filtered, Sigma, G7516-25G), and 0.01% Triton X-100 (Sigma, T9284-10L). Nanoliter quantities of 10-point, 3-fold serial dilution in DMSO was pre-dispensed into 1536 assay plates (Corning, #3724BC) for a final test concentration of 25 μM to 1.3 nM, top to lowest dose, respectively. Enzyme USP28, construct His-tagged USP28-FL-mammalian, (protein expression and purification procedure described below). Concentration and incubation times were optimized for the maximal signal-to-background while maintaining initial velocity conditions at a fixed substrate concentration. The final concentration of the enzyme in the assay was […]. Final substrate (Ub-Rh110; Ubiquitin-Rhodamine 110, UbiQ-126) concentration was 25 nM with [Ub-Rh110]<<Km. 3 μL of 2× enzyme was added to assay plates (pre-stamped with compound) preincubated with […] for 30 minutes and then 3 μL of 2× Ub-Rh110 was added to assay plates. Plates were incubated for 45 minutes at room temperature before addition of 3 μL of stop solution (final concentration of 10 mM citric acid (Sigma, 251275-500G)). Fluorescence was read on the Envision (Excitation at 485 nm and Emission at 535 nm; Perkin Elmer) or on the PheraSTAR (Excitation at 485 nm and Emission at 535 nm; BMG Labtech).
Procedure for the Protein expression and purification for construct His-tagged USP28-FL-mammalian
Expression of USP28 (1-1077)-TEV-6*His (pTT5 vector) was carried out in Expi293f cells (sequence derived from uniprot ID: Q96RU2-1). Cells were re-suspended in lysis buffer B 50 mM Bicine, pH 8.0, 20 mM NaCl, 5% glycerol, 0.1% CHAPS, 5 mM β-ME, 1 mM PMSF, 1 ug/ml Leupeptin, 1 ug/ml Pepstatin) and lysed by sonication. Insoluble material was removed by centrifugation and the supernatant was loaded onto a Ni-NTA column (GE Healthcare) equilibrated with Ni Buffer A (50 mM Bicine, pH 8.0, 20 mM NaCl, 5% glycerol, 0.1% CHAPS, 5 mM R-ME.) and washed with Ni Buffer A+20 mM imidazole until A280 reached baseline. The protein was eluted with Ni Buffer B (50 mM Bicine, pH 8.0, 20 mM NaCl, 5% glycerol, 0.1% CHAPS, 5 mM β-ME, 300 mM imidazole.). The protein was further purified using a Superdex™ 200 10/300 GL column (GE Healthcare) equilibrated with 50 mM Bicine, pH 8.0, 20 mM NaCl, 5% glycerol, 0.1% CHAPS, 5 mM β-ME. The protein was concentrated to 2.5 mg ml-1, flash-frozen in liquid N2 and stored at −80° C.
For assay formats Example A-1(a), A-1(b), and A-2, data were reported as percent inhibition compared with control wells based on the following equation: % inh=1−((FLU−AveLow)/(AveHigh−AveLow)) where FLU=measured Fluorescence, AveLow=average Fluorescence of no enzyme control (n=16), and AveHighh=average Fluorescence of DMSO control (n=16). IC50 values were determined by curve fitting of the standard 4 parameter logistic fitting algorithm included in the Activity Base software package: IDBS XE Designer Model 205. Data is fitted using the Levenburg Marquardt algorithm.
In the case of `Cc1ccc2c(N)c(C(=O)N[C@H]3CCc4nc(N5CC6CC(C5)N6)ccc4C3)sc2n1` [Example 23-10, 3-amino-N-[(6S)-2-{3,6-diazabicyclo[3.1.1]heptan-3-yl}-5,6,7,8-tetrahydroquinolin-6-yl]-6-methylthieno[2,3-b]pyridine-2-carboxamide], the IC50 fell in the range of 0.05 to 0.2 µM.
Consider `CO[C@]1(C)CN(c2ccc3c(c2)OC[C@H](NC(=O)c2sc4nc(C)ccc4c2N)C3)C[C@H]1N` [Example 282, 3-amino-N-[(3R)-7-[(3R,4R)-4-amino-3-methoxy-3-methylpyrrolidin-1-yl]-3,4-dihydro-2H-1-benzopyran-3-yl]-6-methylthieno[2,3-b]pyridine-2-carboxamide], for which the IC50 is 0.2 to 2 µM.
Still for that read-out and setting: the result for `Cc1ccc2c(N)c(C(=O)N[C@H]3COc4cc(N5CC[C@@]6(C5)OCC[C@H]6N)ccc4C3)sc2n1` [Example 409, 3-amino-N-[(3R)-7-[(4R,5S)-4-amino-1-oxa-7-azaspiro[4.4]nonan-7-yl]-3,4-dihydro-2H-1-benzopyran-3-yl]-6-methylthieno[2,3-b]pyridine-2-carboxamide] reads 0.001 to 0.05 µM.

Staying with this assay, now noted: Ubiquitin-Rhodamine 110 biochemical assay, read-out: USP28 A-1(a) IC50 range.
With `COC[C@@H](C)O[C@@H]1CN(c2ccc3c(n2)CC[C@H](NC(=O)c2sc4nc(C)ccc4c2N)C3)C[C@H]1N` [Example 483, 3-amino-N-[(6S)-2-[(3R,4R)-3-amino-4-{[(2R)-1-methoxypropan-2-yl]oxy}pyrrolidin-1-yl]-5,6,7,8-tetrahydroquinolin-6-yl]-6-methylthieno[2,3-b]pyridine-2-carboxamide], the IC50 fell in the range of 0.05 to 0.2 µM.
On to “3-amino-N-[(6S)-2-[(3R,4S)-3-(methoxymethyl)-4-[(^2H3)methylamino]pyrrolidin-1-yl]-5,6,7,8-tetrahydroquinolin-6-yl]-6-methylthieno[2,3-b]pyridine-2-carboxamide [Example 487]”, for which the IC50 was 0.2 to 2 µM.
Regarding `CN[C@H]1CN(c2ccc3c(n2)CC[C@H](NC(=O)c2sc4nc(C)cnc4c2N)C3)C[C@H]1OC` [Example 496, 7-amino-N-[(6S)-2-[(3R,4S)-3-methoxy-4-(methylamino)pyrrolidin-1-yl]-5,6,7,8-tetrahydroquinolin-6-yl]-3-methylthieno[2,3-b]pyrazine-6-carboxamide], the IC50 fell in the range of 0.2 to 2 µM.
Same read-out and setting: as for `CN[C@H]1CN(c2ccc3c(n2)CC[C@H](NC(=O)c2sc4nc(C)ccc4c2N)C3)C[C@]12CCCCO2` [Example 502, 3-amino-6-methyl-N-[(6S)-2-[(4S,5R)-4-(methylamino)-6-oxa-2-azaspiro[4.5]decan-2-yl]-5,6,7,8-tetrahydroquinolin-6-yl]thieno[2,3-b]pyridine-2-carboxamide], the figure is 0.05 to 0.2 µM; as for `Cc1ccc2c(N)c(C(=O)N[C@H]3CCc4nc(N5C[C@H](N)[C@@]6(C5)OCC[C@H]6C)ccc4C3)sc2n1` [Example 510, 3-amino-N-[(6S)-2-[(4R,5R,9S)-9-amino-4-methyl-1-oxa-7-azaspiro[4.4]nonan-7-yl]-5,6,7,8-tetrahydroquinolin-6-yl]-6-methylthieno[2,3-b]pyridine-2-carboxamide], 0.05 to 0.2 µM.
On to `Cc1ccc2c(N)c(C(=O)N[C@H]3CCc4nc(N5C[C@H](COC(F)F)[C@H](N)C5)ccc4C3)sc2n1` [Example 517, 3-amino-N-[(6S)-2-[(3S,4S)-3-amino-4-[(difluoromethoxy)methyl]pyrrolidin-1-yl]-5,6,7,8-tetrahydroquinolin-6-yl]-6-methylthieno[2,3-b]pyridine-2-carboxamide], for which the IC50 lay in the range of 0.05 to 0.2 µM.
Take `CO[C@H]1CCCN(c2ccc3c(n2)CC[C@H](NC(=O)c2sc4nc(C)ccc4c2N)C3)C[C@H]1N` [Example 501, 3-amino-N-[(6S)-2-[(3R,4S)-3-amino-4-methoxyazepan-1-yl]-5,6,7,8-tetrahydroquinolin-6-yl]-6-methylthieno[2,3-b]pyridine-2-carboxamide]: the IC50 was 0.2 to 2 µM.

Staying with this assay, now noted: biochemical IC50 range, Ubiquitin-Rhodamine 110 assay, read-out: USP28 A-1(a).
`Cc1ccc2c(N)c(C(=O)N[C@H]3COc4cc(N5CC[C@]6(CCCN6)C5)cc(F)c4C3)sc2n1` [Example 683, 3-amino-N-[(3R)-7-[(5R)-1,7-diazaspiro [4.4]nonan-7-yl]-5-fluoro-3,4-dihydro-2H-1-benzopyran-3-yl]-6-methylthieno [2,3-b]pyridine-2-carboxamide]: the IC50 fell in the range of 0.001 to 0.05 µM.
In the case of `Cc1ccc2c(N)c(C(=O)N[C@H]3COc4cc(N5C[C@@H](N)[C@]6(CCCCO6)C5)ccc4C3)sc2n1` [Example 611-2, 3-amino-N-[(3R)-7-[(4R,5S)-4-amino-6-oxa-2-azaspiro[4.5]decan-2-yl]-3,4-dihydro-2H-1-benzopyran-3-yl]-6-methylthieno[2,3-b]pyridine-2-carboxamide], the IC50 lay within 0.001 to 0.05 µM.
As for `CO[C@@H]1CCCN(c2cc(F)c3c(c2)OC[C@H](NC(=O)c2sc4nc(C)ccc4c2N)C3)C[C@@H]1N` [Example 692, 3-amino-N-[(3R)-7-[(3S,4R)-3-amino-4-methoxyazepan-1-yl]-5-fluoro-3,4-dihydro-2H-1-benzopyran-3-yl]-6-methylthieno[2,3-b]pyridine-2-carboxamide], the IC50 fell in the range of 0.001 to 0.05 µM.
Regarding `Cc1ccc2c(N)c(C(=O)N[C@H]3COc4cc(N5CC[C@@]6(CCCN6)C5)cc(F)c4C3)sc2n1` [Example 684, 3-amino-N-[(3R)-7-[(5S)-1,7-diazaspiro[4.4]nonan-7-yl]-5-fluoro-3,4-dihydro-2H-1-benzopyran-3-yl]-6-methylthieno [2,3-b]pyridine-2-carboxamide], the IC50 is 0.001 to 0.05 µM.
Regarding `CNc1ncc(C(=O)N[C@H]2COc3cc(N4CCNCC4)ccc3C2)c2[nH]ccc12` [Example 674, 4-(methylamino)-N-[(3R)-7-(piperazin-1-yl)-3,4-dihydro-2H-1-benzopyran-3-yl]-1Hpyrrolo[3,2-c]pyridine-7-carboxamide], the IC50 was 0.2 to 2 µM.

These data come from US12162888B2, “Carboxamides as ubiquitin-specific protease inhibitors” (Valo Early Discovery, Inc., priority 2018, dated 2024).
